“Also recorded” adds a separate entry of the source. Like-named read-outs stand apart in the source and are kept apart here.
Experiments:
[1] = earlier filings PCT/US2012/032090, US 9,422,318, US 9,127,027; cited from earlier work
[2] = Acute i.v. infusion in rats; plasma and kidney levels by LC-MS-MS; format: in vivo, rat; conditions: for concentration at 6 h: male, Sprague-Dawley, intravenous
Description: For EET analog kidney-targeted delivery, we conjugated an EET analog to folic acid because there is a high concentration of folate receptors in renal tissue. The EET analog was conjugated to folic acid via a PEG-diamine linker. Next, we compared the kidney targeted EET analog, EET-FO1, to a well-studied EET analog, EET-A. EET-A or EET-FO1 was infused i.v. (10 mg/kg/hr) for 6 hours via the rat jugular vein. Plasma and kidney tissue were collected and EET-A or EET-FO1 measured by LC-MS-MS. EET-A plasma level was 1.6 ng/mL, but EET-A was undetectable in the kidney. On the other hand, EET-FO1 was 6.5 ng/mL in plasma and 26.7 ng/mL in kidney tissue. […] Experiments were conducted to compare EET-FO1 and EET-A to decrease cisplatin-induced nephrotoxicity. […] Despite it almost 2×-greater molecular weight compared with EET-A, EET-FO1 was effective in lowering BUN and NAG at 20 mg/kg/d and at a 10-fold lower dose of 2 mg/kg/d.
Acute study: Overnight fasted (12-14 hrs) male SD rats (10 weeks old) were anesthetized with sodium pentobarbital (60 mg/kg, i.p.). After a tracheostomy, the left jugular vein was cannulated to continuously infuse vehicle or EET-A or folate conjugated EET analog at a rate of 6 ml/kg/hr for 6 hours. Plasma and kidney sample were collected at the end of the protocol, snap-frozen in liquid nitrogen and stored at −80° C. until analyzed for LC-MS. EET-A and folate conjugated EET analog solutions were prepared in 0.1% DMSO and 1% PEG-400 in saline.
Mass spectrometric analysis: Plasma and kidney levels of EET-A and folate conjugated EET-A were measured by LC-ESI-MS method. Samples were prepared from 200 μl of plasma or kidney homogenate from EET-A or folate conjugated EET-A treated rats using solid phase extraction with Varian Bond Elut® C18 column (Agilent Technologies, Santa Clara, Calif., USA). The extracted samples were stored at −80° C. before analysis. Samples were warmed to room temperature, dried in a stream of nitrogen and the residue reconstituted in 20 μL of acetonitrile, […]. Components were resolved on a 250 mm×2.0 mm Kromasil C18-column packed with 5 μm diameter particles having 100 Å pores. Gradient elution from 80% A to 10% A was used with elutant flow of 0.2 mL/min. Solvent A was water with 0.01% formic acid and solvent B was acetonitrile with 0.01% formic acid using the following profile: 20% B to 30% B in 10 min, 30% B to 60% B in 17 min, 60% B to 90% B in 28 min, hold at 100% for 7 min, then 7 min re-equilibration. MS/MS analysis was performed on an Agilent 6460 triple quadrupole mass spectrometer equipped with a Jet Stream™ interface. Precursor ion, product ion, collision energy and fragmenter voltage were optimized for each compound in negative polarity. Other parameters were as follows: drying gas flow=10 L/min at 325° C., nebulizer=20 psi, sheath gas flow=11 L/min at 325° C., capillary=3.5 kV, and nozzle=1.0 kV. Results acquired at unit-mass resolution.

[3] = test system: WKY rats; experiment: Cisplatin-induced nephrotoxicity in WKY rats (chronic study; BUN, NAG, renal histology); format: in vivo, rat; conditions: for lowering BUN / lowering NAG: cisplatin-treated WKY rats
Description: For EET analog kidney-targeted delivery, we conjugated an EET analog to folic acid because there is a high concentration of folate receptors in renal tissue. The EET analog was conjugated to folic acid via a PEG-diamine linker. Next, we compared the kidney targeted EET analog, EET-FO1, to a well-studied EET analog, EET-A. EET-A or EET-FO1 was infused i.v. (10 mg/kg/hr) for 6 hours via the rat jugular vein. Plasma and kidney tissue were collected and EET-A or EET-FO1 measured by LC-MS-MS.
Chronic study: In chronic study, male Wistar-Kyoto (WKY) rats weighing 180-200 g (Charles River, Mass., USA) were used. The rats were assigned into […] (n=4 in each group). […] While, rats of groups 2,3,4&5 were pre-treated with vehicle (20% DMSO in PEG-400 v/v), EET analog (EET analog in double distilled water) or novel folate conjugated EET analog F01 at 20 mg/kg and 2 mg/kg doses (prepared in a mixture of 20% DMSO in PEG400), respectively in osmotic mini pump (2 ML, Alzet, Cupertino, C A) for seven days. […] One day before euthanasia, the urine of each rat was collected over a 24-h period. […] A schematic of the protocol is depicted in FIG. 1.
Biochemical analysis:The levels of blood urea nitrogen (BUN) (BioAssay Systems, Hayward, Calif., USA) and the activity of urinary N-acetyl-β-(D)-glucosaminidase (NAG) in the urine was measured by a kit from Diazyme (Diazyme Laboratories, Poway, Calif., USA).

[4] = rat, i.v. infusion 10 mg/kg/hr for 6 hours via jugular vein, LC-MS-MS
[5] = five days following cisplatin 7 mg/kg ip, compared with EET-A 10 mg/kg ip

CCCCCNC(=O)NCCCC/C=C\CCCCCCC(=O)N[C@@H](CC(=O)O)C(=O)O [EET-A, reference compound]
oral activity and pharmacokinetic properties [1]: orally active with good pharmacokinetic properties | level in kidney tissue [2, 4]: undetectable; also recorded: almost un-detectable | plasma level [2, 4]: 1.6 ng/mL

CCCCCCC(=O)N(CCCCCOc1cccc2sc(NC(=O)C(C)(C)C)nc12)C(C)C [EET-B]
oral activity and pharmacokinetic properties [1]: orally active with good pharmacokinetic properties

CCCCCNC(=O)NCCCC/C=C\CCCCCCC(=O)NCCOCCOCCNC(=O)CC[C@H](NC(=O)c1ccc(NCc2cnc3nc(N)[nH]c(=O)c3n2)cc1)C(=O)O [EET-FO1]
lowering BUN ([3]; 2 mg/kg/d): effective | lowering NAG ([3]; 2 mg/kg/d): effective | lowering BUN ([3]; 20 mg/kg/d): effective | lowering NAG ([3]; 20 mg/kg/d): effective | decreasing BUN [3, 5]: as effective as EET-A | decreasing NAG [3, 5]: as effective as EET-A | decreasing renal histological injury [3, 5]: as effective as EET-A | kidney protective action against cisplatin nephrotoxicity compared to EET-A (from BUN and urinary NAG) ([3]; pre-treatment, then 5 days treatment after cisplatin (FIG. 3), listed as F01): better kidney protective action; also recorded: superior kidney protective action | rate of reaching the plasma and the kidney, versus non-folate conjugated form ([2]; acute i.v. study): faster rate | plasma level of F01 compared to EET-A ([2]; after 6-hour continuous i.v. administration of equal doses (FIG. 2)): 5 fold | kidney targeting ([2]; conclusion from plasma and kidney levels after 6 h i.v. infusion): targets the kidney | concentration at 6 h ([2]; kidney, rat, i.v. infusion 10 mg/kg/hr for 6 hours via jugular vein, LC-MS-MS, read-out: level in kidney tissue): 26.7 ng/mL | concentration at 6 h ([2]; plasma, rat, i.v. infusion 10 mg/kg/hr for 6 hours via jugular vein, LC-MS-MS, read-out: plasma level): 6.5 ng/mL

Source: patent US11358968B2, “Substituted epoxyeicosatrienoic acid (EET) analogs for treatment of kidney disease” (THE MEDICAL COLLEGE OF WISCONSIN, INC., priority 2017, dated 2022)
